# pIC50: −log10 of the molar value. The source made the active and inactive calls. The rule behind the calls is not given here.
# Assays:
# HeLa [1] = assay: Cytotoxicity against human HeLa cells assessed as inhibition of cell proliferation by MTT assay; type: functional, cell-based
# MCF7 = assay: Cytotoxicity against human MCF7 cells assessed as inhibition of cell proliferation by MTT assay; type: functional, cell-based
# HepG2 = assay: Cytotoxicity against human HepG2 cells assessed as inhibition of cell proliferation by MTT assay; type: functional, cell-based
# NCI-H460 = assay: Cytotoxicity against human NCI-H460 cells assessed as inhibition of cell proliferation by MTT assay; type: functional, cell-based
# [2] = Induction of apoptotis in human HeLa cells assessed as live cells at 10 uM measured after 24 hrs by FITC/propidium iodide staining based flow cytometry (reference value: 89.2 %); type: functional
# [3] = Induction of apoptotis in human HeLa cells assessed as early apoptotic cells at 10 uM measured after 24 hrs by FITC/propidium iodide staining based flow cytometry (reference value: 5.46 %); type: functional
# [4] = Induction of apoptotis in human HeLa cells assessed as late apoptotic cells at 10 uM measured after 24 hrs by FITC/propidium iodide staining based flow cytometry (reference value: 2.74 %); type: functional
# [5] = Induction of apoptotis in human HeLa cells assessed as necrotic cells at 10 uM measured after 24 hrs by FITC/propidium iodide staining based flow cytometry (reference value: 2.59 %); type: functional
# [6] = Induction of apoptotis in human HeLa cells assessed as live cells at 20 uM measured after 24 hrs by FITC/propidium iodide staining based flow cytometry (reference value: 89.2 %); type: functional
# [7] = Induction of apoptotis in human HeLa cells assessed as early apoptotic cells at 20 uM measured after 24 hrs by FITC/propidium iodide staining based flow cytometry (reference value: 5.46 %); type: functional
# [8] = Induction of apoptotis in human HeLa cells assessed as late apoptotic cells at 20 uM measured after 24 hrs by FITC/propidium iodide staining based flow cytometry (reference value: 2.74 %); type: functional
# [9] = Induction of apoptotis in human HeLa cells assessed as necrotic cells at 20 uM measured after 24 hrs by FITC/propidium iodide staining based flow cytometry (reference value: 2.59 %); type: functional
# [10] = Induction of apoptotis in human HeLa cells assessed as live cells at 30 uM measured after 24 hrs by FITC/propidium iodide staining based flow cytometry (reference value: 89.2 %); type: functional
# [11] = Induction of apoptotis in human HeLa cells assessed as early apoptotic cells at 30 uM measured after 24 hrs by FITC/propidium iodide staining based flow cytometry (reference value: 5.46 %); type: functional
# [12] = Induction of apoptotis in human HeLa cells assessed as late apoptotic cells at 30 uM measured after 24 hrs by FITC/propidium iodide staining based flow cytometry (reference value: 2.74 %); type: functional
# [13] = Induction of apoptotis in human HeLa cells assessed as necrotic cells at 30 uM measured after 24 hrs by FITC/propidium iodide staining based flow cytometry (reference value: 2.59 %); type: functional
# [14] = Induction of apoptotis in human HeLa cells assessed as live cells at 40 uM measured after 24 hrs by FITC/propidium iodide staining based flow cytometry (reference value: 89.2 %); type: functional
# [15] = Induction of apoptotis in human HeLa cells assessed as early apoptotic cells at 40 uM measured after 24 hrs by FITC/propidium iodide staining based flow cytometry (reference value: 5.46 %); type: functional
# [16] = Induction of apoptotis in human HeLa cells assessed as late apoptotic cells at 40 uM measured after 24 hrs by FITC/propidium iodide staining based flow cytometry (reference value: 2.74 %); type: functional
# [17] = Induction of apoptotis in human HeLa cells assessed as necrotic cells at 40 uM measured after 24 hrs by FITC/propidium iodide staining based flow cytometry (reference value: 2.59 %); type: functional
# HeLa [18] = assay: Induction of apoptosis in human HeLa cells assessed as increase in PARP cleavage measured after 24 hrs by Western blot analysis; type: functional, cell-based; details: dose 10-30 µM
# HeLa [19] = assay: Activation of MAPK signaling pathway in human HeLa cells assessed as increase in phosphorylated JNK protein level at 30 uM measured after 24 hrs by Western blot analysis; type: cell-based; details: filed as activator
# HeLa [20] = assay: Activation of MAPK signaling pathway in human HeLa cells assessed as increase in phosphorylated p38 protein level at 30 uM measured after 24 hrs by Western blot analysis; type: cell-based; details: filed as activator
# HeLa [21] = assay: Activation of MAPK signaling pathway in human HeLa cells assessed as reduction in phosphorylated ERK expression measured after 24 hrs by Western blot analysis; type: cell-based; details: filed as activator, dose 10-30 µM
# [22] = target: Serine/threonine-protein kinase AKT (Homo sapiens) (UniProt P31751+Q9Y243+P31749); assay: […] of AKT signaling pathway in human HeLa cells assessed as reduction in phosphorylated AKT expression measured after 24 hrs by Western blot analysis; type: cell-based; details: dose 10-30 µM
# Sequence of Serine/threonine-protein kinase AKT (Homo sapiens) (P31749 whole entry, looked up): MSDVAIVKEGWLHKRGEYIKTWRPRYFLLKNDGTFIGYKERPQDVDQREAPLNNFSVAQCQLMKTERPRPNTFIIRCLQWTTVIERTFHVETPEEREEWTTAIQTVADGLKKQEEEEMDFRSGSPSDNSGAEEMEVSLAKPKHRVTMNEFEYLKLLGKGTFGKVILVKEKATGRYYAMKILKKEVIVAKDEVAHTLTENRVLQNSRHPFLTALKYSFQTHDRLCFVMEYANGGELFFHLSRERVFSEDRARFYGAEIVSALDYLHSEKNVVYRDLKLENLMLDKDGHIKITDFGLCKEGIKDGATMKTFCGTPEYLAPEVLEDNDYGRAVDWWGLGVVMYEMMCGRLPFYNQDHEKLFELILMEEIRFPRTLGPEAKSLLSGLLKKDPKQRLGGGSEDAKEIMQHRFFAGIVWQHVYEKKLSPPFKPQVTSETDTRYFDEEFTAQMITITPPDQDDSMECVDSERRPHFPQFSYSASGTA
# Sequence of Serine/threonine-protein kinase AKT (Homo sapiens) (P31751 whole entry, looked up): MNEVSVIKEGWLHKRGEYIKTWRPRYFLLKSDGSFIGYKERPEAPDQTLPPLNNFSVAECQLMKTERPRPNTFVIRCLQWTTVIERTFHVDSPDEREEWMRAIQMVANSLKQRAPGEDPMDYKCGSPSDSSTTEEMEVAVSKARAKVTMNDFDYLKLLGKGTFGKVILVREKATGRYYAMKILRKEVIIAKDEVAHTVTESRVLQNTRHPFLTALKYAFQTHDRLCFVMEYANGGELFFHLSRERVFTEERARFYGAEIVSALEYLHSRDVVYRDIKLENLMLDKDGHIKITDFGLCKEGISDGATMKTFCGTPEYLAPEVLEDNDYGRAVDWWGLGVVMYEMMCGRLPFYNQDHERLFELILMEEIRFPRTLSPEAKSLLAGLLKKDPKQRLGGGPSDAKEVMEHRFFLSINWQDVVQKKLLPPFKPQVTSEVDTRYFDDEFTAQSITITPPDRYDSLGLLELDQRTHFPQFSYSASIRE
# Sequence of Serine/threonine-protein kinase AKT (Homo sapiens) (Q9Y243 whole entry, looked up): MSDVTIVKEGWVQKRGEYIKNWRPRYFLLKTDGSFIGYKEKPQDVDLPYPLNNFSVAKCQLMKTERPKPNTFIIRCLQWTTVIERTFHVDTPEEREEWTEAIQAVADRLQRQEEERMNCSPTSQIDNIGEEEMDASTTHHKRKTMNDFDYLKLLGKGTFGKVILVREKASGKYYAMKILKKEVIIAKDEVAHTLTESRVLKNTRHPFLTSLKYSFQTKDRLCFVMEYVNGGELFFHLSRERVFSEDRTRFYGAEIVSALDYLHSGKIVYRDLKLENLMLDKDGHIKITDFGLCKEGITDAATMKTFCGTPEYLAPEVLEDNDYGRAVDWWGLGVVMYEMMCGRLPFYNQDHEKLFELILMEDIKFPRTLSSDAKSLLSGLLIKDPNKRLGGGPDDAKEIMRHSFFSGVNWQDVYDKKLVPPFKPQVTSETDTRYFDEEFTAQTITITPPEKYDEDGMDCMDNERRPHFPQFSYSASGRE
compound,measurement,setting,value
CC(C)=CCc1cc(-c2cc(=O)c3c(O)cc(O)cc3o2)cc(O)c1O,pIC50,HeLa [1],< 4.40
same,pIC50,MCF7,< 4.40
same,pIC50,HepG2,< 4.40
same,pIC50,NCI-H460,< 4.40
COc1c(CC=C(C)C)cc(C2CC(=O)c3c(O)cc(O)cc3O2)c(CC=C(C)C)c1OC (racemic),pIC50,HeLa [1],< 4.40
same,pIC50,MCF7,< 4.40
same,pIC50,HepG2,< 4.40
same,pIC50,NCI-H460,< 4.40
CC(C)=CCc1c(O)cc(O)c2c(=O)cc(-c3ccc(O)cc3)oc12,pIC50,HeLa [1],< 4.40
same,pIC50,MCF7,< 4.40
same,pIC50,HepG2,< 4.40
same,pIC50,NCI-H460,< 4.40
CC(C)=CCc1c(O)cc2oc(-c3ccc(O)c(O)c3)cc(=O)c2c1O,pIC50,HeLa [1],< 4.40
same,pIC50,MCF7,< 4.40
same,pIC50,HepG2,< 4.40
same,pIC50,NCI-H460,< 4.40
CC(C)=CCc1cc(-c2cc(=O)c3c(O)cc(O)cc3o2)ccc1O,pIC50,HeLa [1],< 4.40
same,pIC50,MCF7,< 4.40
same,pIC50,HepG2,< 4.40
same,pIC50,NCI-H460,< 4.40
CC(C)=CCc1c(O)cc2oc(-c3ccc(O)cc3)cc(=O)c2c1O,pIC50,HeLa [1],4.54
same,pIC50,MCF7,4.49
same,pIC50,HepG2,< 4.40
same,pIC50,NCI-H460,4.41
same,Activity,[2],88.2%
same,Activity,[3],6.92%
same,Activity,[4],4.11%
same,Activity,[5],0.75%
same,Activity,[6],87.6%
same,Activity,[7],8.25%
same,Activity,[8],3.23%
same,Activity,[9],0.88%
same,Activity,[10],86.5%
same,Activity,[11],9.41%
same,Activity,[12],3.4%
same,Activity,[13],0.69%
same,Activity,[14],82.6%
same,Activity,[15],12.5%
same,Activity,[16],4.28%
same,Activity,[17],0.63%
same,Activity,HeLa [18],Dose-dependent effect
same,Activity,HeLa [19],Active
same,Activity,HeLa [20],Active
same,Activity,HeLa [21],Dose-dependent effect
same,Activity,[22],Dose-dependent effect

# Source: ChEMBL document CHEMBL4732223, “Prenylated flavonoids from Ficus hirta induces HeLa cells apoptosis via MAPK and AKT signaling pathways” (Bioorg Med Chem Lett, 2021)
